Measured values as given in US6723732B1, “Percutaneously adminstrable preparations containing cerebral function activators” (Shionogi & Co., Ltd., priority 1998, dated 2004).
Read-outs that look alike come from different tables or passages of the source.

How the values were obtained:
[1] = tested on: skin; test: Macroscopic check of the applied skin and subcutaneous part after the experiment (irritation); format: in vivo, rat (Jcl SD strain)
Description: (IV) After the blood collection at 8 hrs, the residual drug in pharmaceutical preparations of the present invention in the cell was recovered by the addition of 50 mL of methanol. The percent of apparent absorption was calculated by the difference between the initial dose and the recovered amount at 8 hrs. AUC and MRT were calculated from plasma concentration profiles measured by HPLC. Furthermore, the skin to which the applied pharmaceutical preparations were applied and their subcutaneous part were removed and macroscopically checked after the experiments.

[2] = tested on: acetylcholine release; test: Acetylcholine release in frontal cortex dialysate (microdialysis) after percutaneous administration; format: in vivo, rat (Jcl Wistar strain male); conditions: 2, 4 and 8 mg/kg percutaneous, aqueous basic formulation 5.6 mg/mL; values only in FIG. 5 and 6
Description: The day before experiment, a dialysis probe of 2 mm membrane length was inserted into frontal cortex of non-fasting rats (Jcl Wistar strain male rat 9-11 W). On the day of experiment, abdominal region hair was removed using a hair clipper and shaver under 2% halothane anesthesia. The aqueous basic formulation containing 5.6 mg/mL of Compound (I-1) was administered at a volume of 0.125, 0.25 and 0.5 mL to the rayon cloths which area were 2.5, 5, and 10 cm^2, respectively (Dose: 2, 4 and 8 mg/kg). Then the rayon cloths were placed on the abdominal region by support tape and covered with gum tape. After the administration, acetylcholine concentration in dialysate was measured every 30 min. FIG. 5 indicates a time-course of acetylcholine release after the administration of Compound (I-1). The plot data express the percent of control and the control level was monitored before the administration of Compound (I-1) in the same rat. The AUC values were calculated for 4 hrs of acetylcholine release as the percent of control in FIG. 6.

[3] = Percutaneous administration to anesthetized rats (glass cell on abdominal skin), plasma concentration by HPLC and residual drug recovery; format: in vivo, rat (Jcl SD strain); conditions: for MRT / AUC / Cmax / Tmax: Jcl SD, rat, plasma, topical or ocular, N=3
Description: (I) A base was composed of 2.5% 1-menthol/20% ethanol/77.5% distilled water. The phosphate salt of Compound (I-1) as an active ingredient was dissolved or dispersed in it at concentrations of 1.4, 5.6, and 11.2 mg/mL. (II) To Non-fasting rats (Jcl SD strain rat, 9-10 weeks old) was injected 20% urethane solution subcutaneously (0.65 mL/100 g BW). After the anesthetic condition of the rat became stable, abdominal hair was removed using a hair clipper and shaver, then the rats were kept on a hotplate at 36° C. A glass cell (35 mm I.D. with a ground stopper) was attached using Aron alpha (trademark) in an abdominal region of the rat and absorbent gauze (about two sheets) was placed in the cell, then 0.5 mL of the above obtained pharmaceutical preparations of the invention was administrated to the cell (2, 8 or 16 mg/kg, N=3). (III) The time of blood collection: 0, 1, 2, 3, 4, 6, and 8 hr after the administration (IV) After the blood collection at 8 hrs, the residual drug in pharmaceutical preparations of the present invention in the cell was recovered by the addition of 50 mL of methanol. The percent of apparent absorption was calculated by the difference between the initial dose and the recovered amount at 8 hrs. AUC and MRT were calculated from plasma concentration profiles measured by HPLC. Furthermore, the skin to which the applied pharmaceutical preparations were applied and their subcutaneous part were removed and macroscopically checked after the experiments. A phosphate buffer of pH 9 was prepared from 1/15 mole of dibasic sodium phosphate dissolved in […] of distilled water. The phosphate buffers of pH 4 and pH 7 were prepared by the addition of phosphoric acid to the pH 9 buffer. A bBase was composed of 3% 1-menthol/30% ethanol/67% phosphate buffer. The phosphate salt of Compound (I-1) as an active ingredient was dissolved or dispersed in the base at a concentration of 5.6 mg/mL. Other conditions were the same as that of Experiment 1 (N=3). Results are represented in Table 2 and FIG. 2. The phosphate salt of Compound (I-1) as an active ingredient was dissolved or dispersed in bases in Table 3 at a concentration of 5.6 mg/mL. Other condition were the same as that of the Experiment 1. The 3% 1-menthol/30% ethanol/67% pH 4 phosphate buffer was selected as an aqueous base. The 2.5% 1-menthol/20% ethanol/77.5% isopropyl myristate was selected as an oily base. The phosphate salt of Compound (I-1) as an active ingredient was dissolved or dispersed in the aqueous or oily formulation at a concentration of 5.6 mg/mL. Other conditions were the same as that of Experiment 1 (N=3).

[4] = Percutaneous administration by strapping technique to conscious rats (rayon cloth on abdominal region), plasma concentration by HPLC; format: in vivo, rat (Jcl Wistar strain male); conditions: for BA: absolute bioavailability, AUC percutaneous divided by AUC intravenous; for Percent of apparent absorption: residual drug in rayon cloth recovered at 24 hr; for Cmax / Tmax / AUC(0-t): male, Jcl Wistar, rat, plasma, topical or ocular, conscious rats; for Cmax: aqueous base 3% 1-menthol/30% ethanol/67% pH 4 phosphate buffer, 5.6 mg/mL; for Tmax / AUC(0-t): aqueous base pH 4, 5.6 mg/mL; for AUC(0-t): read-out: AUC 0-360 min (converted)
Description: The experiment was performed by the strapping technique under the conscious condition. Non-fasting rats (Jcl Wistar strain male rat 9-11 W) were cannulated in the jugular vein two days before the percutaneous administration experiment. On the day of experiment, abdominal region hair of rats were removed using a hair clipper and shaver under ether anesthesia. Three different volumes (0.125, 0.25, and 0.5 mL) of the aqueous basic formulation (3% 1-menthol/30% ethanol/67% pH 4 phosphate buffer) containing 5.6 mg/mL of Compound (I-1) were administered (2, 4, and 8 mg/kg) on the rayon cloths, which area were 2.5, 5, and 10 cm^2, respectively, supported by tape on the abdominal region then covered with gum tape. Blood samples were collected from the jugular vein of the rats in a cage, at the time of 0, 0.5, 1, 2, 3, 4, 6, 8, and 10 hr. Plasma concentrations were measured by HPLC. The rayon cloths were recovered at 24 hr after the administration and the residual drug was extracted by 30 mL of methanol in a 50 mL centrifuge tube and measured its concentration by HPLC. The percent of apparent absorption was calculated and the absolute bioavailability was calculated from the AUC of percutaneous administration divided by the AUC of intravenous administration.

[5] = 8 mg/kg, pH 4, aqueous base 3% 1-menthol/30% ethanol/67% pH 4 phosphate buffer, phosphate salt 5.6 mg/mL
[6] = 8 mg/kg, pH 4, base pH 4: 3% 1-menthol/30% ethanol/67% phosphate buffer, phosphate salt 5.6 mg/mL
[7] = 8 mg/kg, pH 7, base pH 7: 3% 1-menthol/30% ethanol/67% phosphate buffer, phosphate salt 5.6 mg/mL
[8] = 8 mg/kg, aqueous base 3% 1-menthol/30% ethanol/67% pH 4 phosphate buffer, phosphate salt 5.6 mg/mL
[9] = 8 mg/kg, oily base 2.5% 1-menthol/20% ethanol/77.5% isopropyl myristate, phosphate salt 5.6 mg/mL

Percent of apparent absorption ([3]; 2 mg/kg percutaneous, phosphate salt in 2.5% 1-menthol/20% ethanol/77.5% distilled water, initial dose minus recovered amount at 8 hrs): 71.3%
Percent of apparent absorption ([3]; 8 mg/kg percutaneous, phosphate salt in 2.5% 1-menthol/20% ethanol/77.5% distilled water, initial dose minus recovered amount at 8 hrs): 81.0%
Percent of apparent absorption ([3]; 16 mg/kg percutaneous, phosphate salt in 2.5% 1-menthol/20% ethanol/77.5% distilled water, initial dose minus recovered amount at 8 hrs): 35.8%
MRT ([3]; 2 mg/kg, 2 mg/kg percutaneous, phosphate salt 1.4 mg/mL in 2.5% 1-menthol/20% ethanol/77.5% distilled water): 3.4 ± 0.6 h
AUC ([3]; 2 mg/kg, 2 mg/kg percutaneous, phosphate salt 1.4 mg/mL in 2.5% 1-menthol/20% ethanol/77.5% distilled water, blood to 8 hr): 490 ± 500 ng·h/mL
MRT ([3]; 8 mg/kg, 8 mg/kg percutaneous, phosphate salt 5.6 mg/mL in 2.5% 1-menthol/20% ethanol/77.5% distilled water): 3.6 ± 0.2 h
AUC ([3]; 8 mg/kg, 8 mg/kg percutaneous, phosphate salt 5.6 mg/mL in 2.5% 1-menthol/20% ethanol/77.5% distilled water, blood to 8 hr): 720 ± 50 ng·h/mL
AUC [3, 5]: 1610 ± 300 ng·h/mL
MRT [3, 5]: 2.2 ± 0.5 h
AUC [3, 6]: 1810 ± 300 ng·h/mL
MRT [3, 6]: 3 ± 0.2 h
AUC [3, 7]: 380 ± 180 ng·h/mL
MRT [3, 7]: 3.4 ± 0.3 h
Cmax [3, 8]: 690 ± 130 ng/mL
Tmax [3, 8]: 1.3 ± 0.6 h
AUC [3, 9]: 470 ± 100 ng·h/mL
Cmax [3, 9]: 160 ± 10 ng/mL
MRT [3, 9]: 2.6 ± 0.6 h
Tmax [3, 9]: 1 h
MRT ([3]; 16 mg/kg, 16 mg/kg percutaneous, phosphate salt 11.2 mg/mL in 2.5% 1-menthol/20% ethanol/77.5% distilled water): 4 ± 0.7 h
AUC ([3]; 16 mg/kg, 16 mg/kg percutaneous, phosphate salt 11.2 mg/mL in 2.5% 1-menthol/20% ethanol/77.5% distilled water, blood to 8 hr): 460 ± 180 ng·h/mL
Percent of apparent absorption ([3]; base 2.5% I-menthol, 20% ethanol, 77.5% isopropyl myristate, phosphate salt 5.6 mg/mL): 28.1%
Percent of apparent absorption ([3]; base pH 4: 3% 1-menthol/30% ethanol/67% phosphate buffer, phosphate salt 5.6 mg/mL): 66.8%
Percent of apparent absorption ([3]; base pH 7: 3% 1-menthol/30% ethanol/67% phosphate buffer, phosphate salt 5.6 mg/mL): 22.6%
Percent of apparent absorption ([3]; reference example base 5% N-methyl pyrrolidone, 5% ethanol, 90% isopropyl myristate, phosphate salt 5.6 mg/mL): 17.4%
Percent of apparent absorption ([3]; reference example base 5% ethanol, 95% isopropyl myristate, phosphate salt 5.6 mg/mL): 13.0%
Percent of apparent absorption ([3]; reference example base 5% lactic acid, 5% ethanol, 90% isopropyl myristate, phosphate salt 5.6 mg/mL): 11.9%
concentrations of Compound (I-1) in all plasma samples ([3]; reference example bases of Table 3, under the limit of detection): < 50 ng/mL
BA ([4]; 2 mg/kg percutaneous): 30.92 ± 2.59%
Percent of apparent absorption ([4]; 2 mg/kg percutaneous): 63.9%
BA ([4]; 4 mg/kg percutaneous): 17.86 ± 6.40%
Percent of apparent absorption ([4]; 4 mg/kg percutaneous): 52.8%
BA ([4]; 8 mg/kg percutaneous): 22.68 ± 9.47%
Percent of apparent absorption ([4]; 8 mg/kg percutaneous): 60.0%
Cmax ([4]; 2 mg/kg percutaneous (0.125 mL, 2.5 cm^2)): 140 ± 30 ng/mL
Tmax ([4]; 2 mg/kg percutaneous): 1.25 h
AUC(0-t) ([4]; 2 mg/kg percutaneous): 375 ng·h/mL
Cmax ([4]; 4 mg/kg percutaneous (0.25 mL, 5 cm^2)): 170 ± 60 ng/mL
Tmax ([4]; 4 mg/kg percutaneous): 1.55 h
AUC(0-t) ([4]; 4 mg/kg percutaneous): 408 ng·h/mL
Cmax ([4]; 8 mg/kg percutaneous (0.5 mL, 10 cm^2)): 450 ± 150 ng/mL
Tmax ([4]; 8 mg/kg percutaneous): 0.85 h
AUC(0-t) ([4]; 8 mg/kg percutaneous): 1000 ng·h/mL
Compound: c1cc(-c2nc3c4c(ncc3[nH]2)CCOC4)no1 [Compound (I-1), 2-(3-isoxazolyl)-3,6,7,9-tetrahydroimidazo[4,5-d]pyrano[4,3-b]pyridine]
skin irritation (macroscopic check) ([1]; Experiment 1: all doses (2, 8, 16 mg/kg), 2.5% 1-menthol/20% ethanol/77.5% distilled water base): No irritations
skin irritation (macroscopic check) ([1]; Experiment 2: all formulations (pH 4 and pH 7 phosphate buffer bases), 5.6 mg/mL): No irritations
acetylcholine release in frontal cortex dialysate (percent of control, time-course and AUC for 4 hrs) [2]: prolonged pharmacological effect
